According to patent EP2430044B1, “PEPTIDES INCREASING THE SECRETION AND/OR EXPRESSION OF AT LEAST ONE GAS[…] AND/OR INDUCING THE INCREASE OF MUCUS CELLS OR PANETH CELLS” (Institut National de la Recherche Agronomique (INRA), priority 2009, dated 2010):

What was measured:
Type in all cases: cell-based, humaine
HT29-MTX = assay: Mucin secretion by HT29-MTX cells (ELLA on culture supernatants); settings: pre-incubation with cyprodime 10^-5 M
Procedure: (§1) Les cellules HT29-MTX et HT29-CI16E étaient cultivées en flasques de 25 cm^2 avec du milieu minimum essentiel DMEM supplémenté avec 10% de SVF (sérum de veau foetal) et 1 % d'antibiotiques (pénicilline 10 000 Ul/ml et streptomycine […]). Les cellules étaient incubées à 37°C dans une atmosphère humide (5 % de CO2 et […]). A confluence, les cellules soumises au préalable à l'action de la trypsine (trypsine-EDTA) étaient cultivées dans des plaques 12 puits à raison de 1 ml de milieu de culture complet par puits. Afin de maintenir les cellules dans des conditions optimales de croissance, le milieu de culture était changé tous les 2 jours.
(§2) Les expériences ont été réalisées sur les plaques 12 puits 21 jours après confluence des cellules. La veille de la stimulation, les plaques étaient cultivées sans SVF. Le pool peptidique total des yaourts ainsi que les différentes fractions lyophilisées étaient d'abord repris dans de l'eau stérile en solution 10 fois concentrée (10[Y]), [Y] correspondant à la concentration des peptides dans le yaourt initial). L'osmolarité et le pH des échantillons (ajusté à la neutralité par NaOH) étaient contrôlés à ce stade. Des dilutions successives ([Y], [Y]/2 et [Y]/5) étaient ensuite réalisées dans du milieu de culture dépourvu de SVF. Le jour de l'expérience, le milieu était aspiré puis les cellules étaient lavées avec du PBS à 37°C. […]

MUC5AC = MUC5AC expression in HT29-MTX cells (RT-PCR); settings: with cyprodime, quantitative RT-PCR (Lightcycler)
Procedure: as §1
as §2, with “stade.” for “stade. Des dilutions successives ([Y], [Y]/2 et [Y]/5) étaient ensuite réalisées dans du milieu de culture dépourvu de SVF. Le jour de l'expérience, le milieu était aspiré puis les cellules étaient lavées avec du PBS à 37°C.”
(§3) Les ARN ont été isolés et rétro-transcrits comme décrit précédemment puis les ADNc ont été quantifiés en capillaires à l'aide du kit « FastStart DNA Master SYBR Green l » sur un appareil « lightCycler » (Roche). […]

MUC2 = MUC2 expression in HT29-MTX cells (RT-PCR); settings: with cyprodime 10^-5 M
Procedure: as §1
as §2, with “stade.” for “stade. Des dilutions successives ([Y], [Y]/2 et [Y]/5) étaient ensuite réalisées dans du milieu de culture dépourvu de SVF. Le jour de l'expérience, le milieu était aspiré puis les cellules étaient lavées avec du PBS à 37°C.”
as §3

MUC4 = MUC4 expression in HT29-MTX cells (RT-PCR)
Procedure: as §1
as §2, with “stade.” for “stade. Des dilutions successives ([Y], [Y]/2 et [Y]/5) étaient ensuite réalisées dans du milieu de culture dépourvu de SVF. Le jour de l'expérience, le milieu était aspiré puis les cellules étaient lavées avec du PBS à 37°C.”
as §3

COc1cccc2c1[C@]13CCN(CC4CC4)[C@H](C2)[C@]1(OC)CCC(=O)C3 [cyprodime] was tested, and the “sécrétion de mucines induite par la fraction F3” value (HT29-MTX; fraction F3 at concentration Y) was “inhibe”, the “sécrétion de mucines induite par la fraction C2” value (HT29-MTX; then fraction C2 at concentration Y, 4 h) was “inhibe” and the “augmentation du niveau des transcrits codant MUC5AC induite par la fraction F3” value (MUC5AC) was “abolit”. For the same compound, the “effet de la fraction C2 sur l'expression de MUC2” value (MUC2) was “aboli”, the “effet de la fraction C2 sur l'expression de MUC4” value (MUC4; with cyprodime 10^-5 M) was “aboli” and the “augmentation du niveau des transcrits codant MUC4 induite par la fraction F3” value (MUC4; with cyprodime, quantitative RT-PCR (Lightcycler)) was “Un résultat identique”.
